Assay results as given in patent US9814714B2, “Kinase modulation, and indications therefor” (Plexxikon Inc., priority 2015, dated 2017).

Experiments:
[1] = target: BRAF_V600A (Homo sapiens, UniProt P15056, V600A); assay: RAF kinase biochemical assay, BRAF V600A; details: Table 3; ATP 100 μM
Procedure: (§1) BRAF proteins were produced in insect cells at Plexxikon Inc. as N-terminally His-tagged fragments encompassing the kinase domain.
(§2) 1) Test compounds in DMSO were serially diluted and plated into 384-well assay plates at 1 μL/well.
(§3) 2) Added were 15 μL/well of RAF enzyme and biotinylated-MEK1 substrate in kinase buffer.
(§4) 3) Added were 4 μL of ATP (500 μM) in kinase buffer.
(§5) 5) After a brief spin down, the plate was incubated at about room temperature for 40-50 minutes. 6) Added was 5 μL of Stop buffer at final EDTA 20 mM; anti-phospho-MEK1 1:2,500; donor/acceptor beads 3 μg/mL. 7) After brief spin down, the plate was incubated at room temperature for about 3 hours. 8) The plate was read on the Envision multilabel plate reader (Perkin Elmer). […] 2. Results

[2] = target: BRAF_V600G (Homo sapiens, UniProt P15056, V600G); assay: RAF kinase biochemical assay, BRAF V600G; details: Table 3; ATP 100 μM
BRAF_V600G, sequence (P15056 432-726 V600G): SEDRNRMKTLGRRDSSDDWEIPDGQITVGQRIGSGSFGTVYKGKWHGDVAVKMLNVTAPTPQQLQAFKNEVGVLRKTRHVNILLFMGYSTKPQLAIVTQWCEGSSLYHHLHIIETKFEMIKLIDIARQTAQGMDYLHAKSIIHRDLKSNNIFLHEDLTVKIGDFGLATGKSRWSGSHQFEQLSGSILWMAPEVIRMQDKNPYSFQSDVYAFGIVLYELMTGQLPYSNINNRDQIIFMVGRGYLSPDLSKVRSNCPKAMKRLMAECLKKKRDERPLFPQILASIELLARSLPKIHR
Procedure: as §1, §2, §3, §4, §5

[3] = target: BRAF_V600K (Homo sapiens, UniProt P15056, V600K); assay: RAF kinase biochemical assay, BRAF V600K; details: Table 3; ATP 100 μM
BRAF_V600K, sequence (P15056 448-723 V600K): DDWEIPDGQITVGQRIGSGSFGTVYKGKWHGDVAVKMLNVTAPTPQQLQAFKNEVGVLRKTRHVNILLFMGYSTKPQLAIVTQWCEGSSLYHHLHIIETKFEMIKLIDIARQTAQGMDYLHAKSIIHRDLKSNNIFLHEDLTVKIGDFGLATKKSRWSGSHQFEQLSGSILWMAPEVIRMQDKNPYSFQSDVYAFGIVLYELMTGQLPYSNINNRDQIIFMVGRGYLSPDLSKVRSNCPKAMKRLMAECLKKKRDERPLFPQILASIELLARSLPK
Procedure: as §1, §2, §3, §4, §5

[4] = target: BRAF_V600M (Homo sapiens, UniProt P15056, V600M); assay: RAF kinase biochemical assay, BRAF V600M; details: Table 3; ATP 100 μM
BRAF_V600M, sequence (P15056 432-726 V600M): as the sequence (P15056 432-726 V600G) above, with G169M counted along it
Procedure: as §1, §2, §3, §4, §5

[5] = target: BRAF_V600R (Homo sapiens, UniProt P15056, V600R); assay: RAF kinase biochemical assay, BRAF V600R; details: Table 3; ATP 100 μM
BRAF_V600R, sequence (P15056 448-723 V600R): as the sequence (P15056 448-723 V600K) above, with K153R counted along it
Procedure: as §1, §2, §3, §4, §5

[6] = tested on: HT-29 cells; assay: Growth assay (CellTiter-Glo), HT-29; format: cell-based; details: Homo sapiens, HT-29, 72 h; colorectal adenocarcinoma; BRAF V600E/WT, RAS WT; 3 days
Text: (§6) In order to determine the effects of Formula I on proliferation, a growth assay was established using melanoma cells (A375 and COLO829) and colorectal carcinoma cells (COLO205, HT-29) which each express the BRAFV600E mutation. To show selectivity over wild-type BRAF, several BRAF wild-type cell lines (K562, NOMO-1, MV-4-11 and ML-2) were also examined in the growth assay. The growth assay implemented the Promega CellTiter-Glo Luminescent Cell viability assay, which gives a luminescent readout that is proportional to the amount of ATP present in a cell sample. As ATP levels directly correlate with the number of viable cells, the luminescent signal can be used to determine the potency of Formula I to block the proliferation of the cell lines of interest.
(§7) 1. 3,000 cells were plated in each well for cell lines A375, COLO205, COLO829, HT-29, and SK-MEL-3. 25,000 cells were plated in each well for cell lines K562, ML-2, MV-4-11, and
(§8) NOMO-1 of a 96-well tissue-culture-treated plate (Corning #3610) in a 50 μL volume. Cells were incubated overnight at 37° C.
(§9) 2. Each test compound was plated as an 8-point titration, using 1:3 dilutions in DMSO. The maximum concentration was about 5 mM. Dilute DMSO and test compound of Formula I 1:250 in growth media.
3. […]
(§10) 4. […] Luminescence was measured on a Tecan Safire plate reader. […]

[7] = tested on: MV-4-11 cells; assay: Growth assay (CellTiter-Glo), MV-4-11; format: cell-based; details: Homo sapiens, MV4-11, 72 h; biphenotypic B myelomonocytic leukemia; BRAF WT, RAS WT; 3 days
Text: as §6, §7, §8, §9
3. […]
as §10

[8] = tested on: NOMO-1 cells; assay: Growth assay (CellTiter-Glo), NOMO-1; format: cell-based; details: Homo sapiens, NOMO-1, 72 h; acute myeloid leukemia; BRAF WT, KRAS-G13D; 3 days
Text: as §6, §7, §8, §9
3. […]
as §10

[9] = target: NIH/3T3 cells stably expressing KIAA1549-BRAF fusions (Homo sapiens, UniProt P15056); assay: BRAF fusion xenograft tumor growth; format: in vivo, balb/c nu/nu mice; details: all three xenografts (three of the four KIAA1549-BRAF fusions); flank of balb/c nu/nu mice
NIH/3T3 cells stably expressing KIAA1549-BRAF fusions, sequence (P15056 448-766 limits assumed): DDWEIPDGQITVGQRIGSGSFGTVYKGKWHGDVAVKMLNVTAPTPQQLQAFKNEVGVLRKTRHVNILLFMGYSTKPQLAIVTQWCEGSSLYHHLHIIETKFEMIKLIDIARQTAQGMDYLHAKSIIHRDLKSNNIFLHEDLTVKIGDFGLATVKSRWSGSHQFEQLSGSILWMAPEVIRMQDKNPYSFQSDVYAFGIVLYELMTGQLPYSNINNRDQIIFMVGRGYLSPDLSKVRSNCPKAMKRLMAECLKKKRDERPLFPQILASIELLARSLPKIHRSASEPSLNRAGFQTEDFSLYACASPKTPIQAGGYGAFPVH
Procedure: NIH/3T3 (ATCC® CRL-1658™) cells stably expressing KIAA1549-BRAF fusions (Fusion-1, Fusion-2, Fusion-3, and Fusion-4) were injected into the flank of balb/c nu/nu mice. Tumor growth was measured with calipers. Ellipsoid tumor volume was calculated using the following formula: volume=½·length·width^2.

[10] = tested on: BRAF-V600E in SK-MEL-239 parental cells; assay: ERK/MEK phosphorylation and growth assays, SK-MEL-239 parental; format: cell-based
[11] = tested on: BRAF-V600E in vemurafenib-resistant SK-MEL-239 C3 cells
[12] = tested on: pERK in SKBR3 cells (over-expression of HER2); assay: pERK levels in SKBR3; format: cell-based; details: human breast adenocarcinoma cell line
Procedure: The compound of Formula II was also evaluated in the human SCC cell line A431 and the human breast adenocarcinoma cell line SKBR3 as these cells achieve MAPK pathway activation by upstream signals feeding into RAS (through over-expression of EGFR and HER2, respectively).
Phospho-ERK AlphaScreen® assay: The degree of ERK phosphorylation was determined using an AlphaScreen® assay where an increase in ERK1/2 phosphorylation at Thr202/Tyr204 brought the donor and acceptor AlphaScreen® beads into close proximity, generating a signal for quantification. To determine the effects of compound treatment on phosphorylation of ERK1/2, cells were plated in a 96-well plate and treated with an 8-point titration of compound for one hour at 37° C. before lysis. To detect pERK, cell lysates were incubated with streptavidin-coated AlphaScreen® donor beads, anti-mouse IgG AlphaScreen® acceptor beads, a biotinylated anti-ERK1/2 rabbit antibody, and a mouse antibody that recognizes ERK1/2 only when it is phosphorylated on Thr202 and Tyr204. […] An increase in ERK1/2 phosphorylation at Thr202/Tyr204 brings the donor and acceptor AlphaScreen® beads into close proximity, generating a signal that can be quantified on an EnVision reader (Perkin Elmer).
Phospho-ERK immunoblot analysis: Western blots were performed by standard techniques and analyzed on an Odyssey Infrared Scanner (Li-COR Biosciences). […]

BRAF_V600A, sequence (P15056 432-726 V600A): as the sequence (P15056 432-726 V600G) above, with G169A counted along it

SMILES: O=C(c1c(F)ccc(NS(=O)(=O)N2CC[C@@H](F)C2)c1F)c1c[nH]c2ncc(-c3cnc(C4CC4)nc3)cc12 [Formula I, (3R)—N-[3-[5-(2-cyclopropylpyrimidin-5-yl)-1H-pyrrolo[2,3-b]pyridine-3-carbonyl]-2,4-difluorophenyl]-3-fluoropyrrolidine-1-sulfonamide]
- IC50 [1]: 14.2 nM
- IC50 [2]: 6.3 nM
- IC50 [3]: 3.9 nM
- IC50 [4]: 9.8 nM
- IC50 [5]: 3.5 nM
- IC50 [6]: 840 nM
- IC50 [7]: > 10 µM
- IC50 [8]: > 10 µM
- Inhibition of xenograft growth (tumor volume) [9]: ≥ 50%
- Inhibition of BRAF-V600E in SK-MEL-239 parental (in words) [10]: potent inhibitor
- Inhibition of BRAF-V600E in vemurafenib-resistant C3 (in words) [11]: potent inhibitor

SMILES: CCN(C)S(=O)(=O)Nc1ccc(F)c(C(=O)c2c[nH]c3ncc(-c4cnc(C5CC5)nc4)cc23)c1F [Formula II, 5-(2-cyclopropylpyrimidin-5-yl)-3-[3-[[ethyl(methyl)sulfamoyl]amino]-2,6-difluoro-benzoyl]-1H-pyrrolo[2,3-b]pyridine]
- Change of pERK levels in SKBR3 (in words) [12]: did not increase pERK levels
